Experimental data: the supplement of paper PMC10307832

Compound: Cn1c(=O)n(-c2ccc(C(C)(C)C#N)cc2)c2c3cc(-c4cnc5ccccc5c4)ccc3ncc21 [Dactolisib] + COc1cc2c(Oc3ccc(NC(=O)C4(C(=O)Nc5ccc(F)cc5)CC4)cc3F)ccnc2cc1OCCCN1CCOCC1 [Foretinib] (partner 0.25 µM)
Test: relative viability (nuclei count vs DMSO), 5 days (fraction); higher = more cells survive
Conditions: first compound 0.002 µM
Outline: (§1)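 Lung cancer cell lines were seeded in 1536-well plates and dosed by pin tool the next day, with either a single drug or a fixed anchor-drug dose combined with five library-drug doses (not always all listed) spaced in √10 steps. Five days later, one step fixed the cells and stained their nuclei (final 0.05% Triton X-100, 1% formaldehyde, 1 ug/ml Hoechst), and nuclei were counted on 4× images. Relative viability is the nuclei count in treated wells divided by the count in vehicle wells, and each value is the median of duplicate plates.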

Cell Line | relative viability
COR-L23 | 1.2
COR-L 105 | 0.926
LOU-NH91 | 0.897
ChaGo-K-1 | 0.908
NCI-H2170 | 0.995
NCI-H2405 | 1.02
HOP-62 | 1.26
LU99A | 0.742
BEN | 0.898
HARA | 1.12
HCC-78 | 0.629
NCI-H322M | 1.08
LCLC-97TM1 | 1.05
NCI-H2009 | 1.28
A-427 | 1.2
NCI-H441 | 1.14

Cell Line | relative viability
NCI-H1734 | 0.837
NCI-H460 | 1.03
NCI-H2347 | 0.848
SW 1573 | 0.996
NCI-H1395 | 1.03
201T | 0.916
NCI-H1915 | 1.19
HCC-827 | 0.995
LXF-289 | 1.02
NCI-H23 | 1.17
NCI-H647 | 1.15
CAL-12T | 1.25
NCI-H1651 | 0.918
EPLC-272H | 0.623
NCI-H2228 | 0.875

Same assay, conditions: first compound 0.006325 µM

Cell Line | relative viability
COR-L23 | 0.982
COR-L 105 | 1
LOU-NH91 | 0.921
ChaGo-K-1 | 0.919
NCI-H2170 | 1.01
NCI-H2405 | 1.06
HOP-62 | 1.1
LU99A | 0.75
BEN | 0.632
HARA | 0.878
HCC-78 | 0.589
NCI-H322M | 0.89
LCLC-97TM1 | 0.923
NCI-H2009 | 1.24
A-427 | 1.05
NCI-H441 | 1.04

Cell Line | relative viability
NCI-H1734 | 0.773
NCI-H460 | 1
NCI-H2347 | 1
SW 1573 | 0.964
NCI-H1395 | 0.916
201T | 1.11
NCI-H1915 | 1.06
HCC-827 | 1.04
LXF-289 | 0.952
NCI-H23 | 0.997
NCI-H647 | 1.18
CAL-12T | 1.09
NCI-H1651 | 0.782
EPLC-272H | 0.491
NCI-H2228 | 0.675

Same assay, conditions: first compound 0.02 µM

Cell Line | relative viability
COR-L23 | 0.948
COR-L 105 | 0.832
LOU-NH91 | 0.9
ChaGo-K-1 | 0.886
NCI-H2170 | 0.895
NCI-H2405 | 1.05
HOP-62 | 0.974
LU99A | 0.582
BEN | 0.647
HARA | 0.771
HCC-78 | 0.451
NCI-H322M | 0.73
LCLC-97TM1 | 0.688
NCI-H2009 | 1.06
A-427 | 0.873
NCI-H441 | 0.961

Cell Line | relative viability
NCI-H1734 | 0.805
NCI-H460 | 1.03
NCI-H2347 | 0.693
SW 1573 | 0.875
NCI-H1395 | 0.942
201T | 1.06
NCI-H1915 | 1.08
HCC-827 | 0.913
LXF-289 | 0.99
NCI-H23 | 0.69
NCI-H647 | 1.16
CAL-12T | 0.972
NCI-H1651 | 0.561
EPLC-272H | 0.467
NCI-H2228 | 0.406

Same assay, conditions: first compound 0.06325 µM

Cell Line | relative viability
COR-L23 | 0.369
COR-L 105 | 0.859
LOU-NH91 | 0.658
ChaGo-K-1 | 0.835
NCI-H2170 | 0.85
NCI-H2405 | 0.606
HOP-62 | 0.747
LU99A | 0.386
BEN | 0.57
HARA | 0.763
HCC-78 | 0.376
NCI-H322M | 0.629
LCLC-97TM1 | 0.668
NCI-H2009 | 1.2
A-427 | 0.56
NCI-H441 | 0.432

Cell Line | relative viability
NCI-H1734 | 0.467
NCI-H460 | 0.493
NCI-H2347 | 0.765
SW 1573 | 0.34
NCI-H1395 | 0.636
201T | 0.636
NCI-H1915 | 0.832
HCC-827 | 0.815
LXF-289 | 0.987
NCI-H23 | 0.456
NCI-H647 | 0.211
CAL-12T | 0.898
NCI-H1651 | 0.321
EPLC-272H | 0.308
NCI-H2228 | 0.191

Same assay, conditions: first compound 0.2 µM

Cell Line | relative viability
COR-L23 | 0.34
COR-L 105 | 0.417
LOU-NH91 | 0.548
ChaGo-K-1 | 0.926
NCI-H2170 | 0.174
NCI-H2405 | 0.475
HOP-62 | 0.516
LU99A | 0.312
BEN | 0.422
HARA | 0.225
HCC-78 | 0.338
NCI-H322M | 0.578
LCLC-97TM1 | 0.367
NCI-H2009 | 0.625
A-427 | 0.46
NCI-H441 | 0.382

Cell Line | relative viability
NCI-H1734 | 0.284
NCI-H460 | 0.407
NCI-H2347 | 0.486
SW 1573 | 0.371
NCI-H1395 | 0.537
201T | 0.491
NCI-H1915 | 0.467
HCC-827 | 0.283
LXF-289 | 0.827
NCI-H23 | 0.413
NCI-H647 | 0.395
CAL-12T | 0.241
NCI-H1651 | 0.345
EPLC-272H | 0.236
NCI-H2228 | 0.181

Compound: Cn1c(=O)n(-c2ccc(C(C)(C)C#N)cc2)c2c3cc(-c4cnc5ccccc5c4)ccc3ncc21 [Dactolisib] + Nc1nc2[nH]cc(CCc3ccc(C(=O)N[C@@H](CCC(=O)O)C(=O)O)cc3)c2c(=O)[nH]1 [Pemetrexed] (partner 0.2 µM)
Test: as above
Conditions: first compound 0.002 µM
Outline: as §1

Cell Line | relative viability
COR-L23 | 0.194
COR-L 105 | 1.22
LOU-NH91 | 0.287
ChaGo-K-1 | 0.27
NCI-H2170 | 0.262
NCI-H2405 | 1.1
HOP-62 | 0.305
LU99A | 0.152
BEN | 0.714
HARA | 0.242
HCC-78 | 0.833
NCI-H322M | 0.664
LCLC-97TM1 | 0.169
NCI-H2009 | 1.09
A-427 | 1.09
NCI-H441 | 0.24

Cell Line | relative viability
NCI-H1734 | 0.335
NCI-H460 | 0.0654
NCI-H2347 | 0.459
SW 1573 | 0.696
NCI-H1395 | 0.537
201T | 0.329
NCI-H1915 | 0.355
HCC-827 | 0.216
LXF-289 | 0.921
NCI-H23 | 0.635
NCI-H647 | 0.144
CAL-12T | 1.23
NCI-H1651 | 0.53
EPLC-272H | 0.214
NCI-H2228 | 0.35

Same assay, conditions: first compound 0.006325 µM

Cell Line | relative viability
COR-L23 | 0.198
COR-L 105 | 1.25
LOU-NH91 | 0.377
ChaGo-K-1 | 0.261
NCI-H2170 | 0.258
NCI-H2405 | 1.03
HOP-62 | 0.33
LU99A | 0.197
BEN | 0.757
HARA | 0.22
HCC-78 | 0.892
NCI-H322M | 0.641
LCLC-97TM1 | 0.158
NCI-H2009 | 1.07
A-427 | 1.03
NCI-H441 | 0.266

Cell Line | relative viability
NCI-H1734 | 0.436
NCI-H460 | 0.0618
NCI-H2347 | 0.459
SW 1573 | 0.768
NCI-H1395 | 0.883
201T | 0.295
NCI-H1915 | 0.508
HCC-827 | 0.222
LXF-289 | 0.886
NCI-H23 | 0.635
NCI-H647 | 0.172
CAL-12T | 1.17
NCI-H1651 | 0.654
EPLC-272H | 0.333
NCI-H2228 | 0.352

Same assay, conditions: first compound 0.02 µM

Cell Line | relative viability
COR-L23 | 0.195
COR-L 105 | 0.891
LOU-NH91 | 0.372
ChaGo-K-1 | 0.255
NCI-H2170 | 0.281
NCI-H2405 | 0.972
HOP-62 | 0.341
LU99A | 0.2
BEN | 0.603
HARA | 0.3
HCC-78 | 0.875
NCI-H322M | 0.643
LCLC-97TM1 | 0.186
NCI-H2009 | 1
A-427 | 0.968
NCI-H441 | 0.24

Cell Line | relative viability
NCI-H1734 | 0.415
NCI-H460 | 0.0641
NCI-H2347 | 0.426
SW 1573 | 0.584
NCI-H1395 | 0.705
201T | 0.292
NCI-H1915 | 0.455
HCC-827 | 0.219
LXF-289 | 0.964
NCI-H23 | 0.563
NCI-H647 | 0.194
CAL-12T | 1.17
NCI-H1651 | 0.533
EPLC-272H | 0.294
NCI-H2228 | 0.324

Same assay, conditions: first compound 0.06325 µM

Cell Line | relative viability
COR-L23 | 0.197
COR-L 105 | 0.892
LOU-NH91 | 0.431
ChaGo-K-1 | 0.256
NCI-H2170 | 0.261
NCI-H2405 | 0.641
HOP-62 | 0.262
LU99A | 0.178
BEN | 0.639
HARA | 0.235
HCC-78 | 0.885
NCI-H322M | 0.523
LCLC-97TM1 | 0.192
NCI-H2009 | 0.964
A-427 | 0.8
NCI-H441 | 0.221

Cell Line | relative viability
NCI-H1734 | 0.36
NCI-H460 | 0.0892
NCI-H2347 | 0.411
SW 1573 | 0.284
NCI-H1395 | 0.722
201T | 0.272
NCI-H1915 | 0.425
HCC-827 | 0.213
LXF-289 | 1.02
NCI-H23 | 0.289
NCI-H647 | 0.154
CAL-12T | 0.412
NCI-H1651 | 0.329
EPLC-272H | 0.36
NCI-H2228 | 0.252

Same assay, conditions: first compound 0.2 µM

Cell Line | relative viability
COR-L23 | 0.183
COR-L 105 | 0.356
LOU-NH91 | 0.445
ChaGo-K-1 | 0.247
NCI-H2170 | 0.263
NCI-H2405 | 0.378
HOP-62 | 0.25
LU99A | 0.18
BEN | 0.434
HARA | 0.223
HCC-78 | 0.916
NCI-H322M | 0.474
LCLC-97TM1 | 0.16
NCI-H2009 | 0.498
A-427 | 0.644
NCI-H441 | 0.25
NCI-H1734 | 0.317
NCI-H460 | 0.0591
NCI-H2347 | 0.422
SW 1573 | 0.203
NCI-H1395 | 0.521
201T | 0.247
NCI-H1915 | 0.42
HCC-827 | 0.145
LXF-289 | 0.619
NCI-H23 | 0.296
NCI-H647 | 0.101
CAL-12T | 0.325
NCI-H1651 | 0.299
